Numbers after ± are expanded uncertainties.
How the values were obtained:
[1] = refractive index (Na D-line) (dimensionless); xn = mol fraction of the nth substance listed; settings: 101.3 kPa, Liquid, Standard Abbe refractometry, x2 = 0
[2] = xn = mol fraction of the nth substance listed; settings: 101.3 kPa, Liquid, x2 = 0; for speed of sound: Frequency=3 MHz, Single path-length method; for mass density: Vibrating tube method
[3] = refractive index (Na D-line) (dimensionless); settings: 101.3 kPa, Liquid, Standard Abbe refractometry
[4] = 101.3 kPa, Liquid; for speed of sound: Frequency=3 MHz, Single path-length method; for mass density: Vibrating tube method

| Compound | refractive index ([3]; 303.15 K) | refractive index ([3]; 308.15 K) | refractive index ([3]; 313.15 K) | refractive index ([3]; 318.15 K) | refractive index ([3]; 323.15 K) | speed of sound ([4]; 303.15 K) [m/s] | mass density ([4]; 303.15 K) [kg/m3] | speed of sound ([4]; 308.15 K) [m/s] | mass density ([4]; 308.15 K) [kg/m3] | speed of sound ([4]; 313.15 K) [m/s] | mass density ([4]; 313.15 K) [kg/m3] | speed of sound ([4]; 318.15 K) [m/s] | mass density ([4]; 318.15 K) [kg/m3] | speed of sound ([4]; 323.15 K) [m/s] | mass density ([4]; 323.15 K) [kg/m3] | further results |
| --- | --- | --- | --- | --- | --- | --- | --- | --- | --- | --- | --- | --- | --- | --- | --- | --- |
| COC(=O)OC [dimethyl carbonate] + CCCC[n+]1ccn(C)c1.O=S(=O)([N-]S(=O)(=O)C(F)(F)F)C(F)(F)F | – | – | – | – | – | – | – | – | – | – | – | – | – | – | – | refractive index ([1]; 303.15 K): 1.3648 ± 0.001; refractive index ([1]; 308.15 K): 1.3629 ± 0.001; refractive index ([1]; 313.15 K): 1.3626 ± 0.001; refractive index ([1]; 318.15 K): 1.3601 ± 0.001; refractive index ([1]; 323.15 K): 1.3586 ± 0.001; speed of sound ([2]; 303.15 K): 1177.3 ± 1.1 m/s; mass density ([2]; 303.15 K): 1056.8 ± 2 kg/m3; speed of sound ([2]; 308.15 K): 1155.6 ± 1.1 m/s; mass density ([2]; 308.15 K): 1050.2 ± 2 kg/m3; speed of sound ([2]; 313.15 K): 1134.2 ± 1.1 m/s; mass density ([2]; 313.15 K): 1043.5 ± 2 kg/m3; speed of sound ([2]; 318.15 K): 1113.1 ± 1.1 m/s; mass density ([2]; 318.15 K): 1036.8 ± 2 kg/m3; speed of sound ([2]; 323.15 K): 1092.2 ± 1.1 m/s; mass density ([2]; 323.15 K): 1030 ± 2 kg/m3 |
| COC(=O)OC [dimethyl carbonate] | 1.3648 ± 0.001 | 1.3629 ± 0.001 | 1.3626 ± 0.001 | 1.3601 ± 0.001 | 1.3586 ± 0.001 | 1177.3 ± 1.1 | 1056.8 ± 2 | 1155.6 ± 1.1 | 1050.2 ± 2 | 1134.2 ± 1.1 | 1043.5 ± 2 | 1113.1 ± 1.1 | 1036.8 ± 2 | 1092.2 ± 1.1 | 1030 ± 2 | – |
| CCCC[n+]1ccn(C)c1.O=S(=O)([N-]S(=O)(=O)C(F)(F)F)C(F)(F)F | 1.4245 ± 0.0011 | 1.4231 ± 0.0011 | 1.421 ± 0.0011 | 1.4195 ± 0.0011 | 1.4173 ± 0.0011 | 1216.8 ± 1.4 | 1428.9 ± 2.1 | 1205.8 ± 1.4 | 1424.1 ± 2.1 | 1195 ± 1.4 | 1419.4 ± 2.1 | 1184.2 ± 1.4 | 1414.6 ± 2.1 | 1173.6 ± 1.4 | 1409.9 ± 2.1 | – |

Reference: the NIST ThermoML archive (doi:10.1016/j.jct.2017.07.013)
